Experimental findings from ChEMBL document CHEMBL1201862, “PubChem BioAssay data set” (2004) are described below.

Assay in all cases: inhibition of tumour cell growth, NCI panel, 48 h
Test [1] has as its system SK-MEL-5.
Test [2] deals with UACC-257.
Test [3] deals with HCT-116.
Test [4] deals with UACC-62.
Test [5] relates to Malme-3M.
For test [6], the system named is M14.
The subject of test [7] is UO-31.
Test [8] relates to HT-29.
Test [9] deals with OVCAR-3.
The test system of test [10] is SF-295.
For test [11], the system named is OVCAR-4.
In test [12] the test system is HCC 2998.
Test [13] relates to U-251.
Test [14] relates to SF-539.
Test [15] deals with NCI-H522.
Test [16] has as its system EKVX.
Test [17] deals with SR.

Each structure is given as a SMILES string.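 Five compound concentrations were applied to cells in 96-well plates for 48 hours; endpoints were derived by simple linear interpolation of the resulting dose-response curve. GI50 is the concentration that inhibits growth by half.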 Active and inactive are the calls of the source. No stated cut-off is given here; in the data, active = GI50 up to about 1.1 µM and inactive = higher. Some results are limits rather than exact numbers.

On to `CCCCCCCCCCCCCCCCCC(=O)NCCCNCCCNC(=O)CCCCCCCCCCCCCCCCC`, for which the GI50 in [1], in [2], in test [3], in test [4], in test [5] and in test [6] was > 100 µM (inactive) each time. Further, the GI50 in [7] is > 100 µM (inactive); in test [8], > 100 µM (inactive); in test [9], 37.3 µM (inactive); in test [10], > 100 µM (inactive); in test [11], > 100 µM (inactive); in [12] it was > 100 µM (inactive). Moreover, in test [13], the GI50 is > 100 µM (inactive).
For `COP1(=O)CC2C(Cl)(Cl)C2(C)C1` (stereo unspecified), the GI50 in test [1], in [14], in test [15], in test [3], in [4] and in test [6] was > 100 µM (inactive) each time. Also, the GI50 in [8], in test [9], in test [10], in test [11], in test [12] and in test [13] was > 100 µM (inactive) throughout.
With `O/N=C1/CCCC/C1=C\c1ccc(Cl)c(Cl)c1`, the GI50 in test [16] was 23.9 µM (inactive); in test [1] it was 16.1 µM (inactive); in test [14], 19 µM (inactive); in test [3], 17.2 µM (inactive); in test [4], 29.7 µM (inactive); in test [6], 28.2 µM (inactive). The GI50 is 20.8 µM (inactive) in test [7]; 18.8 µM (inactive) in test [8]; 21.8 µM (inactive) in [9]; 40.5 µM (inactive) in [10]; 21.5 µM (inactive) in [11]; 29 µM (inactive) in [12]. Further, the GI50 in [13] was 17.3 µM (inactive).
With `Cc1cc(Br)c(O)c(-c2cscn2)c1`, the GI50 in test [16] was 33.1 µM (inactive); in test [1] it was 16.8 µM (inactive); in test [2], > 10 µM (inactive); in test [14], 20 µM (inactive); in test [3], 12.6 µM (inactive); in test [4], 12.7 µM (inactive). The GI50 in [5] was 21.8 µM (inactive); in [6], 23.6 µM (inactive); in test [7], 12.7 µM (inactive); in test [8], 27.3 µM (inactive); in test [9], 52.5 µM (inactive); in [10], 23.2 µM (inactive). Besides, the GI50 in [11] is 14.6 µM (inactive); in [12] it was 19 µM (inactive).
Consider `O=C(NCCCCCCNC(=O)c1cccc2ccccc12)c1cccc2ccccc12`, for which the GI50 was 20.5 µM (inactive) in test [16]; > 100 µM (inactive) in test [17]; > 100 µM (inactive) in [1]; 74.3 µM (inactive) in [2]; 11.8 µM (inactive) in [14]; 17.9 µM (inactive) in test [15]. Also, the GI50 was 14.4 µM (inactive) in [3]; > 100 µM (inactive) in [4]; 33.3 µM (inactive) in test [5]; 46.8 µM (inactive) in [6]; 31.5 µM (inactive) in test [7]; > 100 µM (inactive) in test [8]. Further, the GI50 was 28.9 µM (inactive) in [9], 1.93 µM (inactive) in test [10], 14.4 µM (inactive) in test [11] and 18.3 µM (inactive) in [13].
In the case of `CC(=O)OC1=C2CC3(C)OC(=O)CC(C)(C)C3=CC=C2C=C(C(C)C)C1=O` (stereo unspecified), the GI50 was 1.89 µM (inactive) in test [16]; 0.278 µM (active) in [17]; 0.826 µM (active) in test [1]; 0.49 µM (active) in [2]; 0.189 µM (active) in [15]; 0.41 µM (active) in test [3]. Also, the GI50 in test [4] is 0.268 µM (active); in test [5], 0.356 µM (active); in test [6] it was 0.334 µM (active); in test [7], 1.74 µM (inactive); in [8], 1.07 µM (active); in test [9], 1.13 µM (inactive). Moreover, the GI50 is 1.66 µM (inactive) in test [10], 0.299 µM (active) in [11], 0.877 µM (active) in test [12] and 1.6 µM (inactive) in test [13].
For `CC(C)(C)c1cc(CCC(=O)Nc2ccc(Cl)cc2)nc(S)n1`, the GI50 in [16], in [1], in test [2], in [14], in test [15] and in [4] was > 100 µM (inactive) each time. The GI50 in [5], in [6], in test [7], in test [8], in test [9] and in [10] was > 100 µM (inactive) throughout. The GI50 in [11], in test [12] and in test [13] was > 100 µM (inactive) throughout.
Take `COC1=CC(=C(C#N)/C(=N\c2ccccc2)SC)C=C(OC)C1=O`: the GI50 in test [16] was > 100 µM (inactive); in test [1] it was 20.7 µM (inactive); in test [2], 56.6 µM (inactive); in test [14], > 100 µM (inactive); in test [15], 37.6 µM (inactive); in test [3], 29.9 µM (inactive). In addition, the GI50 in test [4] is 44.3 µM (inactive); in test [5], > 100 µM (inactive); in test [6], > 10 µM (inactive); in test [7], 36.5 µM (inactive); in test [8] it was > 100 µM (inactive); in test [9] it was 31.2 µM (inactive). In addition, the figures for the GI50 in [10], in test [12] and in test [13] were 69.2 µM (inactive), 94.8 µM (inactive) and 0.352 µM (active), respectively.
On to `CN(C)CCCNC(=O)N/N=C/c1cccc([N+](=O)[O-])c1`, for which the GI50 in [1], in [2], in [14], in [15], in test [3] and in test [4] was > 100 µM (inactive) in each case. Besides, the GI50 in test [5], in [6], in test [8], in test [9], in test [10] and in [11] was > 100 µM (inactive) each time. In test [13], the GI50 is > 100 µM (inactive).
Take `COc1ccc(/C=C2/C[N+](C)(C)C/C(=C/c3ccc(OC)cc3)C2=O)cc1`: the GI50 in test [16] was > 100 µM (inactive); in test [1] it was 23.4 µM (inactive); in [2] it was 29.4 µM (inactive); in test [14] it was 40 µM (inactive); in [15] it was 17.9 µM (inactive); in test [3], 32.5 µM (inactive). Further, the GI50 in test [4] is 16.3 µM (inactive); in test [5] it was 22.5 µM (inactive); in [6], 70.5 µM (inactive); in [7], > 100 µM (inactive); in test [8], 30.2 µM (inactive); in [9] it was 30 µM (inactive). The GI50 in test [10] was > 77.1 µM (inactive); in test [11] it was 36 µM (inactive); in test [12] it was 15.3 µM (inactive); in test [13], 19.5 µM (inactive).
For the molecule `CCOC(=O)NC(=O)c1cn(CC(=O)NCC(=O)NCC(=O)N2CCN(CCn3c(C)nc(C(N)=O)c3N)CC2)c(=O)[nH]c1=O`, the GI50 in [17], in test [1], in test [2], in [14], in test [3] and in test [4] was > 100 µM (inactive) in each case. The GI50 in [5], in test [6], in [7], in test [8], in test [10] and in test [12] was > 100 µM (inactive) in each case. Also, the GI50 in test [13] was > 100 µM (inactive).
Consider `[N-]=[N+]=NC1CC(n2cc(COCC(F)(F)F)c(=O)[nH]c2=O)OC1CO` (stereo unspecified), for which the GI50 in test [16], in [1], in [2], in test [14], in test [15] and in [4] was > 100 µM (inactive) in each case. Besides, the GI50 in [5], in [6], in test [7], in test [8], in test [9] and in test [10] was > 100 µM (inactive) each time. In addition, the GI50 in test [11], in test [12] and in test [13] was > 100 µM (inactive) in each case.
Turning to `Cc1cc2c(cc1C)[n+]([O-])c(C(=O)/C=C/c1ccc(Cl)cc1)c(C)[n+]2[O-]`, the GI50 in [16] was 55 µM (inactive); in [1], 23.7 µM (inactive); in [2] it was 27.3 µM (inactive); in test [14], 20.5 µM (inactive); in test [15] it was 19.4 µM (inactive); in [4] it was 20.3 µM (inactive). Moreover, the GI50 in test [5] is 38.5 µM (inactive); in test [6], 23.3 µM (inactive); in [7], 17.9 µM (inactive); in [8] it was 30.3 µM (inactive); in [9], 33 µM (inactive); in test [10], 22 µM (inactive). Moreover, the values for the GI50 in test [11], in test [12] and in [13] were 33.7 µM (inactive), 23.5 µM (inactive) and 26.8 µM (inactive), respectively.
Take `O=c1[nH]nc2ccccc2c1Cl`: the GI50 in test [16] was 4.29 µM (inactive); in test [1], > 10 µM (inactive); in [2] it was 10.2 µM (inactive); in test [14], 15.6 µM (inactive); in test [3] it was 16.3 µM (inactive); in test [4], 12.8 µM (inactive). Further, the GI50 in [5] is 16.2 µM (inactive); in test [6], 12.3 µM (inactive); in test [7], 15 µM (inactive); in [8], 6.68 µM (inactive); in test [9], 2.65 µM (inactive); in test [10] it was 20.5 µM (inactive). In addition, the GI50 in [11] is 11.2 µM (inactive); in test [12], 1.52 µM (inactive); in test [13], 15.8 µM (inactive).
